{"source": "ChEMBL document CHEMBL1126617", "about": "“A topochemical approach to explain morphiceptin bioactivity” (J Med Chem, 1993)", "key": {"Mu-type opioid receptor": {"target": "Mu-type opioid receptor (Cavia porcellus, UniProt P97266)", "sequence (P97266 whole entry)": "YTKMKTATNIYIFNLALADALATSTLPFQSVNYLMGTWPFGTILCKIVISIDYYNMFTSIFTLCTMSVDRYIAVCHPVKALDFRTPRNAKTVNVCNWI", "experiment": "In vitro inhibitory activity against mu opioid receptor using guinea pig ileum (GPI) assay", "type": "tissue-based"}, "[1]": {"target": "Delta-type opioid receptor (Mus musculus, UniProt P32300)", "sequence (P32300 whole entry)": "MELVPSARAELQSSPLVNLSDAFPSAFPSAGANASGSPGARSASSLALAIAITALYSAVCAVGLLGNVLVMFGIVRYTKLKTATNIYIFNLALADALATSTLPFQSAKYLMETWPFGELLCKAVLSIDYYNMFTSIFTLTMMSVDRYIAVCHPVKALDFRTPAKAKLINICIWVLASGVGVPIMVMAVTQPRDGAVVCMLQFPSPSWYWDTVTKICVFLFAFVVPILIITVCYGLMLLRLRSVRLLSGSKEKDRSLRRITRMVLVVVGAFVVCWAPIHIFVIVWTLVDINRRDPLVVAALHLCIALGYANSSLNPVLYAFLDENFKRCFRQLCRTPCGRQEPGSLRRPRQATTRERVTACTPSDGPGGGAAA", "experiment": "In vitro inhibitory activity against delta opioid receptor using mouse vas deferens (MVD) assay", "type": "tissue-based"}}}
{"smiles": "CN(C(=O)[C@@H]1CCCN1C(=O)[C@@H](N)Cc1ccc(O)cc1)[C@@H](Cc1ccccc1)C(=O)N1CCC[C@@H]1C(N)=O", "values": [{"measurement": "IC50", "setting": "Mu-type opioid receptor", "value": 0.0207, "unit": "µM"}, {"measurement": "IC50", "setting": "[1]", "value": 1.25, "unit": "µM"}]}
{"smiles": "C[C@H](NC(=O)[C@@H](N)Cc1ccc(O)cc1)C(=O)N[C@@H](Cc1ccccc1)C(=O)N1CCC[C@@H]1C(N)=O", "values": [{"measurement": "IC50", "setting": "[1]", "value": "> 100", "unit": "µM"}]}
{"smiles": "CN(C(=O)[C@@H]1CCCN1C(=O)[C@@H](N)Cc1ccc(O)cc1)[C@@H](Cc1ccccc1)C(=O)N1CCC[C@H]1C(N)=O", "values": [{"measurement": "IC50", "setting": "Mu-type opioid receptor", "value": 0.17, "unit": "µM"}, {"measurement": "IC50", "setting": "[1]", "value": 1.79, "unit": "µM"}]}
{"smiles": "CN(C(=O)[C@@H]1CCCN1C(=O)[C@@H](N)Cc1ccc(O)cc1)[C@H](Cc1ccccc1)C(=O)N1CCC[C@H]1C(N)=O", "values": [{"measurement": "IC50", "setting": "Mu-type opioid receptor", "value": "> 100", "unit": "µM"}, {"measurement": "IC50", "setting": "[1]", "value": "> 1000", "unit": "µM"}]}
{"smiles": "NC(=O)[C@@H]1CCCN1C(=O)[C@H](Cc1ccccc1)NC(=O)[C@@H]1CCCN1C(=O)[C@@H](N)Cc1ccc(O)cc1", "note": "[MORPHICEPTIN]", "values": [{"measurement": "IC50", "setting": "Mu-type opioid receptor", "value": 0.552, "unit": "µM"}, {"measurement": "IC50", "setting": "[1]", "value": 3.69, "unit": "µM"}]}
{"smiles": "NC(=O)[C@H]1CCCN1C(=O)[C@H](Cc1ccccc1)NC(=O)[C@@H]1CCCN1C(=O)[C@@H](N)Cc1ccc(O)cc1", "values": [{"measurement": "IC50", "setting": "Mu-type opioid receptor", "value": 0.0287, "unit": "µM"}, {"measurement": "IC50", "setting": "[1]", "value": 1.51, "unit": "µM"}]}
{"smiles": "NC(=O)[C@H]1CCCN1C(=O)[C@@H](Cc1ccccc1)NC(=O)[C@@H]1CCCN1C(=O)[C@@H](N)Cc1ccc(O)cc1", "values": [{"measurement": "IC50", "setting": "Mu-type opioid receptor", "value": 0.557, "unit": "µM"}, {"measurement": "IC50", "setting": "[1]", "value": 4.81, "unit": "µM"}]}
{"smiles": "NC(=O)[C@@H]1CCCN1C(=O)[C@@H](Cc1ccccc1)NC(=O)[C@@H]1CCCN1C(=O)[C@@H](N)Cc1ccc(O)cc1", "values": [{"measurement": "IC50", "setting": "Mu-type opioid receptor", "value": 0.109, "unit": "µM"}, {"measurement": "IC50", "setting": "[1]", "value": 0.594, "unit": "µM"}]}
{"smiles": "CN(C(=O)[C@@H]1CCCN1C(=O)[C@@H](N)Cc1ccc(O)cc1)[C@H](Cc1ccccc1)C(=O)N1CCC[C@@H]1C(N)=O", "values": [{"measurement": "IC50", "setting": "Mu-type opioid receptor", "value": 2.66, "unit": "µM"}, {"measurement": "IC50", "setting": "[1]", "value": 565, "unit": "µM"}]}
{"smiles": "C[C@@H](C(=O)N[C@@H](Cc1ccccc1)C(=O)N1CCC[C@@H]1C(N)=O)N(C)C(=O)[C@@H](N)Cc1ccc(O)cc1", "values": [{"measurement": "IC50", "setting": "Mu-type opioid receptor", "value": 0.0306, "unit": "µM"}, {"measurement": "IC50", "setting": "[1]", "value": 0.202, "unit": "µM"}]}
